Test system: 485176-168-R4-J1-PDC complex spheroid growth
Experiment: Anticancer human tumor 485176-168-R4-J1-PDC patient-derived pancreatic adenocarcinoma cell line growth inhibition [RAS]
Details: for viability, T/C: stronger effect = lower value; active means viability on the fitted dose curve at most 10% of control; inactive means the rest
How it was run: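 Tumour cells grown as complex spheroids with HUVEC endothelial cells and mesenchymal stem cells, treated with RAS pathway inhibitor combinations. Each agent spans half-log steps from near clinical Cmax, or 10 microM where Cmax is unknown.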

[1] = curve of first compound, second compound 0.000949 µM
[2] = curve of first compound, second compound 0.003 µM
[3] = curve of first compound, second compound 0.00949 µM
[4] = curve of first compound, second compound 0.03 µM
[5] = curve of first compound, second compound 0.0949 µM
[6] = curve of first compound, second compound 0.3 µM
[7] = second compound 0.000949 µM, first compound 0.0316 µM
[8] = second compound 0.000949 µM, first compound 0.1 µM
[9] = second compound 0.000949 µM, first compound 0.316 µM
[10] = second compound 0.000949 µM, first compound 1 µM
[11] = second compound 0.000949 µM, first compound 3.16 µM
[12] = second compound 0.000949 µM, first compound 10 µM
[13] = second compound 0.003 µM, first compound 0.0316 µM
[14] = second compound 0.003 µM, first compound 0.1 µM
[15] = second compound 0.003 µM, first compound 0.316 µM
[16] = second compound 0.003 µM, first compound 1 µM
[17] = second compound 0.003 µM, first compound 3.16 µM
[18] = second compound 0.003 µM, first compound 10 µM
[19] = second compound 0.00949 µM, first compound 0.0316 µM
[20] = second compound 0.00949 µM, first compound 0.1 µM
[21] = second compound 0.00949 µM, first compound 0.316 µM
[22] = second compound 0.00949 µM, first compound 1 µM
[23] = second compound 0.00949 µM, first compound 3.16 µM
[24] = second compound 0.00949 µM, first compound 10 µM
[25] = second compound 0.03 µM, first compound 0.0316 µM
[26] = second compound 0.03 µM, first compound 0.1 µM
[27] = second compound 0.03 µM, first compound 0.316 µM
[28] = second compound 0.03 µM, first compound 1 µM
[29] = second compound 0.03 µM, first compound 3.16 µM
[30] = second compound 0.03 µM, first compound 10 µM
[31] = second compound 0.0949 µM, first compound 0.0316 µM
[32] = second compound 0.0949 µM, first compound 0.1 µM
[33] = second compound 0.0949 µM, first compound 0.316 µM
[34] = second compound 0.0949 µM, first compound 1 µM
[35] = second compound 0.0949 µM, first compound 3.16 µM
[36] = second compound 0.0949 µM, first compound 10 µM
[37] = second compound 0.3 µM, first compound 0.0316 µM
[38] = second compound 0.3 µM, first compound 0.1 µM
[39] = second compound 0.3 µM, first compound 0.316 µM
[40] = second compound 0.3 µM, first compound 1 µM
[41] = second compound 0.3 µM, first compound 3.16 µM
[42] = second compound 0.3 µM, first compound 10 µM
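Further: spheroids exposed to compounds for seven days before readout.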
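Wherever viability, T/C is given: luminescence viability expressed relative to DMSO vehicle wells set as 100%.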

Cc1nc(N2CCC3(CC2)COC(C)C3N)c(CO)nc1Sc1ccnc(N)c1Cl (stereo unspecified) + CCn1c(-c2cccnc2C(C)OC)c2c3cc(ccc31)N1CCOC(CC(NC(=O)C(C(C)C)N(C)C(=O)C3(F)CCN(C(=O)C#CC(C)(C)N(C)C)CC3)C(=O)N3CCCC(N3)C(=O)OCC(C)(C)C2)C1
inactive: viability, T/C [7] 96.6% | viability, T/C [8] 87.4% | viability, T/C [9] 84% | viability, T/C [10] 85.1% | viability, T/C [11] 89.1% | viability, T/C [12] 79.4% | viability, T/C [13] 93.1% | viability, T/C [14] 103% | viability, T/C [15] 81% | viability, T/C [16] 68.9% | viability, T/C [17] 82% | viability, T/C [18] 71% | viability, T/C [19] 110% | viability, T/C [20] 92.9% | viability, T/C [21] 94.7% | viability, T/C [22] 77.6% | viability, T/C [23] 87.6% | viability, T/C [24] 64.3% | viability, T/C [25] 93.3% | viability, T/C [26] 91.2% | viability, T/C [27] 92.2% | viability, T/C [28] 69.2% | viability, T/C [29] 74.8% | viability, T/C [30] 73.9% | viability, T/C [31] 97.3% | viability, T/C [32] 85.4% | viability, T/C [33] 72.3% | viability, T/C [34] 87.3% | viability, T/C [35] 70.8% | viability, T/C [36] 85.5% | viability, T/C [37] 71.7% | viability, T/C [38] 65.4% | viability, T/C [39] 60.2% | viability, T/C [40] 66% | viability, T/C [41] 70.8% | viability, T/C [42] 66.2%
> 10000 nM: IC50 [1] | IC50 [2] | IC50 [3] | IC50 [4] | IC50 [5] | IC50 [6]

CC(C)NCC(C(=O)N1CCN(c2ncnc3c2C(C)CC3O)CC1)c1ccc(Cl)cc1 (stereo unspecified) + CCn1c(-c2cccnc2C(C)OC)c2c3cc(ccc31)N1CCOC(CC(NC(=O)C(C(C)C)N(C)C(=O)C3(F)CCN(C(=O)C#CC(C)(C)N(C)C)CC3)C(=O)N3CCCC(N3)C(=O)OCC(C)(C)C2)C1
1250 nM: IC50 [3]
inactive: viability, T/C [7] 98.8% | viability, T/C [8] 86% | viability, T/C [9] 79.7% | viability, T/C [10] 60% | viability, T/C [11] 44.9% | viability, T/C [12] 30% | viability, T/C [13] 98.4% | viability, T/C [14] 91% | viability, T/C [15] 76.7% | viability, T/C [16] 59.1% | viability, T/C [17] 39.6% | viability, T/C [18] 28.9% | viability, T/C [19] 91.8% | viability, T/C [20] 103% | viability, T/C [21] 73% | viability, T/C [22] 52.6% | viability, T/C [23] 45.4% | viability, T/C [24] 31.2% | viability, T/C [25] 84.5% | viability, T/C [26] 91.1% | viability, T/C [27] 74.1% | viability, T/C [28] 53.7% | viability, T/C [29] 34.7% | viability, T/C [30] 32.4% | viability, T/C [31] 94% | viability, T/C [32] 90.7% | viability, T/C [33] 78.7% | viability, T/C [34] 50.4% | viability, T/C [35] 40.9% | viability, T/C [36] 26.9% | viability, T/C [37] 73.6% | viability, T/C [38] 81% | viability, T/C [39] 51.7% | viability, T/C [40] 40.6% | viability, T/C [41] 27.3% | viability, T/C [42] 17.6%
510 nM: IC50 [6]
2210 nM: IC50 [1]
1700 nM: IC50 [2]
1290 nM: IC50 [5]
1180 nM: IC50 [4]

CC(C)n1nc(-c2ccc3oc(N)nc3c2)c2c(N)ncnc21
inactive: viability, T/C (compound 0.000316 µM) 104% [middle of 4 runs] | viability, T/C (compound 0.001 µM) 77.8% [middle of 4 runs] | viability, T/C (compound 0.00316 µM) 84.1% [middle of 4 runs] | viability, T/C (compound 0.01 µM) 77.2% [middle of 4 runs] | viability, T/C (compound 0.0316 µM) 49.2% [middle of 4 runs] | viability, T/C (compound 0.1 µM) 22.3% [middle of 4 runs]
31.2 nM [middle of 4 runs]: IC50 (curve of compound)

Source: PubChem BioAssay AID2060906 (Molecular Pharmacology Branch, DTP, NCI, 2025)
